Holding throughout (type): cell-based
Assay [1] has as its system HTT mRNA. The experiment in a line: Splicing RT-qPCR assay (THP), Table 2A. As to conditions: Table 2A (THP); for AC50: AJ mRNA increase, read-out: HTT AJ (increase in alternative junction mRNA, AC50); for IC50: CJ mRNA decrease, read-out: HTT CJ (decrease in canonical junction mRNA, IC50). (In qPCR the cycle at which signal appears reflects the starting amount.)
The test system of assay [2] is MYB mRNA. Kind of assay: Splicing RT-qPCR assay (THP), Table 2A. Conditions: Table 2A (THP); for AC50: AJ mRNA increase, read-out: MYB AJ (increase in alternative junction mRNA, AC50); for IC50: CJ mRNA decrease, read-out: MYB CJ (decrease in canonical junction mRNA, IC50).
In assay [3] the test system is HTT mRNA. The experiment in a line: Gene panel canonical junction qPCR assay, decrease in CJ mRNA, Table 3. Conditions: decrease in canonical junction (CJ) mRNA, gene panel qPCR, Table 3. The gist of the method:
(§1)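 A673 cells were plated, left to adhere for 24 h, then dosed; K562 cells were plated in 96- or 384-well format and dosed directly. Both were incubated 24 h at 37 °C with an 11-point 3-fold series (top 10 uM final). Canonical junction mRNA was then read by cDNA synthesis and qPCR.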

The subject of assay [4] is MYB mRNA. Described as above. As to conditions: decrease in canonical junction (CJ) mRNA, gene panel qPCR, Table 3. The gist of the method:
as §1

Assay [5] concerns SH-SY5Y (human neuroblastoma) cells. Kind of assay: Cell viability, Cell Titer Glo 2.0 assay. Conditions: read-out: Viability SHSY5Y.3 GI50. The gist of the method: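 SH-SY5Y neuroblastoma cells are exposed to test compounds for 72 hours at 37 °C and 5% CO2, with final DMSO held at 0.1%. Cell viability is then measured with the CellTiter-Glo 2.0 assay.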
For orientation: Cellular ATP, detected with luciferase, serves as a proxy for viable cell number.

Structures can show the parent of a compound that is named as a salt. Where only a bound is given, the exact number is not on record here.

The AC50 is the concentration giving half of the maximal activity seen. For orientation: IC50 means the concentration that gives 50% inhibition. Usually GI50 stands for the concentration giving 50% growth inhibition. For the molecule `COc1cc2nn(C)cc2cc1NC(=O)c1ccc(N2CCNC(C)CC2)c2cn(C)nc12` (centres unmarked) [Compound 546], the figures for the AC50 in assay [1] and in assay [2] were above 10000 nM and 100 to 1000 nM, respectively. In addition, the IC50 in assay [1] was above 10000 nM; in assay [2], 100 to 1000 nM; in assay [3] it was above 10000 nM; in assay [4], 100 to 1000 nM. In addition, the GI50 in assay [5] was in the range of 1000 to 10000 nM.
For `COc1cc2nn(C)cc2cc1NC(=O)c1ccc(NC2CCCNCC2)c2cn(C)nc12` (centres unmarked) [Compound 547], the AC50 in assay [1] and in assay [2] was 1000 to 10000 nM in each case. The IC50 in assay [1], in assay [2], in assay [3] and in assay [4] was 1000 to 10000 nM each time. Besides, the GI50 in assay [5] was above 10000 nM.
In the case of `COc1cc2nn(C)cc2cc1NC(=O)c1ccc(N(C)C2CCNCC2)c2cn(C)nc12` [Compound 548], the AC50 is above 10000 nM in assay [1] and 100 to 1000 nM in assay [2]. For the same molecule, the IC50 in assay [1] was above 10000 nM; in assay [2], 100 to 1000 nM; in assay [3], above 10000 nM; in assay [4], 100 to 1000 nM. Further, in assay [5], the GI50 was in the range of 1000 to 10000 nM.
Turning to `Cc1cn2cc(NC(=O)c3ccc(N4C[C@H](C)N[C@@H](C)C4)c4cn(C)nc34)nc2c(C)n1` [Compound 549], the figures for the AC50 in assay [1] and in assay [2] were above 10000 nM and 1000 to 10000 nM, respectively. For the same molecule, the IC50 was above 10000 nM in assay [1], 1000 to 10000 nM in assay [2], above 10000 nM in assay [3] and 1000 to 10000 nM in assay [4]. The GI50 in assay [5] was above 10000 nM.
As for `COc1cc2nn(C)cc2cc1NC(=O)c1ccc(N2C[C@H](C)N[C@@H](C)C2)c2cn(C)nc12` [Compound 553], the AC50 in assay [1] is 1000 to 10000 nM; in assay [2], below 100 nM. For the same molecule, the IC50 in assay [1] lay in the range of 1000 to 10000 nM; in assay [2] it was 100 to 1000 nM; in assay [3], 1000 to 10000 nM; in assay [4], 100 to 1000 nM. The GI50 in assay [5] lay in the range of 1000 to 10000 nM.
Consider `Cc1cn2cc(NC(=O)c3ccc(N4CCNC(C)C4)c4cn(C)nc34)nc2c(C)n1` (centres unmarked) [Compound 557], for which the AC50 in assay [1] is above 10000 nM; in assay [2], 100 to 1000 nM. The IC50 in assay [1] is above 10000 nM; in assay [2] it was 100 to 1000 nM; in assay [3], above 10000 nM; in assay [4], 100 to 1000 nM. For the same molecule, the GI50 in assay [5] lay within 1000 to 10000 nM.
With `CC1OB(O)c2ccc(NC(=O)c3c(F)cc(N4CCC(NC5CC5)CC4)c4cn(C)nc34)cc21` (centres unmarked) [Compound 558, 4-(4-(cyclopropyl-amino)piperidin-1-yl)-6-fluoro-N-(1-hydroxy-3-methyl-1,3-dihydrobenzo[c]-[1,2]oxaborol-5-y1)-2-methyl-2H-indazole-7-carboxamide hydrochloride], the AC50 in assay [1] is above 10000 nM; in assay [2], 1000 to 10000 nM. Further, the IC50 was above 10000 nM in assay [1], 1000 to 10000 nM in assay [2], above 10000 nM in assay [3] and 1000 to 10000 nM in assay [4]. The GI50 in assay [5] is 100 to 1000 nM.
On to `Cc1cc2sc(NC(=O)c3ccc(N4CCC(NC5CC5)CC4)c4cn(C)nc34)cc2c(C)n1` [Compound 559, 4-[4-(cyclopropylamino)-1-piperidyl]-N-(4,6-dimethyl-thieno[3,2-c]-pyridin-2-yl)-2-methyl-indazole-7-carboxamide], for which the AC50 in assay [1] and in assay [2] was 1000 to 10000 nM in each case. Further, the IC50 in assay [1], in assay [2], in assay [3] and in assay [4] was 1000 to 10000 nM each time. Also, the GI50 in assay [5] lay within 1000 to 10000 nM.
Consider `CCNC1CCN(c2ccc(C(=O)Nc3cn(C)c(=O)cc3OC)c3nn(C)cc23)CC1` [Compound 560, 4-[4-(ethylamino)-1-piperidyl]-N-(4-methoxy-1-methyl-6-oxo-3-pyridyl)-2-methyl-indazole-7-carboxamide], for which the AC50 in assay [1] and in assay [2] was above 10000 nM throughout. The IC50 in assay [1] was above 10000 nM; in assay [2] it was 1000 to 10000 nM; in assay [3], above 10000 nM; in assay [4], 1000 to 10000 nM. Also, in assay [5], the GI50 was above 10000 nM.
Consider `CCNC1CCN(c2ccc(C(=O)Nc3cc(C)c(=O)n(C)c3)c3nn(C)cc23)CC1` [Compound 561, N-(1,5-dimethyl-6-oxo-3-pyridyl)-4-[4-(ethylamino)-1-piperidyl]-2-methyl-indazole-7-carboxamide], for which the AC50 in assay [1] and in assay [2] was above 10000 nM throughout. The IC50 was above 10000 nM in assay [1], 1000 to 10000 nM in assay [2], above 10000 nM in assay [3] and 1000 to 10000 nM in assay [4]. Further, the GI50 in assay [5] was above 10000 nM.
As for `Cc1cn2cc(NC(=O)c3ccc(N4CC5(CCNCC5)C4)c4cn(C)nc34)nc2c(C)n1` [Compound 562], the AC50 in assay [1] and in assay [2] was above 10000 nM each time. In addition, the IC50 in assay [1], in assay [2], in assay [3] and in assay [4] was above 10000 nM throughout. The GI50 in assay [5] is above 10000 nM.
Turning to `Cc1cn2cc(NC(=O)c3ccc(N4CCC5(CCN5)CC4)c4cn(C)nc34)nc2c(C)n1` [Compound 563, 4-(1,7-diazaspiro[3.5]nonan-7-yl)-N-(6,8-dimethyl-imidazo[1,2-a]pyrazin-2-yl)-2-methyl-indazole-7-carboxamide], the results for the AC50 in assay [1] and in assay [2] were above 10000 nM and 100 to 1000 nM, respectively. For the same molecule, the IC50 was above 10000 nM in assay [1], 100 to 1000 nM in assay [2], above 10000 nM in assay [3] and 100 to 1000 nM in assay [4]. The concentration for 50% growth inhibition (GI50) in assay [5] was above 10000 nM.
For the molecule `Cc1cn2cc(NC(=O)c3ccc(N(C)C4CCNCC4)c4cn(C)nc34)nc2c(C)n1` [Compound 564], the AC50 in assay [1] and in assay [2] was 100 to 1000 nM in each case. Also, the IC50 in assay [1], in assay [2], in assay [3] and in assay [4] was 100 to 1000 nM each time. In addition, the GI50 in assay [5] was 100 to 1000 nM.
Take `Cc1cn2cc(NC(=O)c3ccc(OC4CCNCC4)c4cn(C)nc34)nc2c(C)n1` [Compound 565]: the AC50 in assay [1] and in assay [2] was 100 to 1000 nM each time. The IC50 in assay [1], in assay [2], in assay [3] and in assay [4] was 100 to 1000 nM in each case. Also, in assay [5], the GI50 fell in the range of 100 to 1000 nM.
For `COc1cc2nn(C)cc2cc1NC(=O)c1ccc(OC2CCNCC2)c2cn(C)nc12` [Compound 566], the AC50 was in the range of 1000 to 10000 nM in assay [1] and 100 to 1000 nM in assay [2]. For the same molecule, the IC50 in assay [1], in assay [2], in assay [3] and in assay [4] was 100 to 1000 nM throughout. In addition, the GI50 in assay [5] lay within 1000 to 10000 nM.
On to `COc1cc2nn(C)cc2cc1NC(=O)c1ccc(OC2CCNC2)c2cn(C)nc12` (centres unmarked) [Compound 567], for which the AC50 in assay [1] was 1000 to 10000 nM; in assay [2] it was 100 to 1000 nM. For the same molecule, the IC50 in assay [1], in assay [2], in assay [3] and in assay [4] was 100 to 1000 nM each time. Besides, the GI50 in assay [5] lay in the range of 1000 to 10000 nM.
Consider `COc1cc2nn(C)cc2cc1NC(=O)c1ccc(N2CCNC(C)C2)c2cn(C)nc12` (centres unmarked) [Compound 568], for which the AC50 fell in the range of 1000 to 10000 nM in assay [1] and 100 to 1000 nM in assay [2]. Further, the IC50 in assay [1], in assay [2], in assay [3] and in assay [4] was 100 to 1000 nM each time. Moreover, in assay [5], the GI50 lay within 1000 to 10000 nM.
In the case of `Cc1cn2cc(NC(=O)c3ccc(N4CCC(NC5CC5)CC4)c4cn(C)nc34)c(OC(C)C)c2c(C)n1` [Compound 569, 4-[4-(cyclopropylamino)-1-piperidyl]-N-(8-isopropoxy-1,3-dimethyl-pyrrolo[1,2-a]pyrazin-7-yl)-2-methyl-indazole-7-carboxamide], the AC50 in assay [1] and in assay [2] was above 10000 nM in each case. The IC50 in assay [1], in assay [2], in assay [3] and in assay [4] was above 10000 nM throughout. Also, the GI50 in assay [5] was in the range of 1000 to 10000 nM.
Take `Cc1cn2cc(NC(=O)c3ccc(N4CCC(NC5CC5)CC4)c4cn(C)nc34)cc2c(CNS(C)(=O)=O)n1` [Compound 570, 4-[4-(cyclopropyl-amino)-1-piperidyl]-N-[1-(methanesulfonamidometh-yl)-3-methyl-pyrrolo[1,2-a]-pyrazin-7-yl]-2-methyl-indazole-7-carboxamide]: the AC50 in assay [1] and in assay [2] was above 10000 nM each time. Besides, the IC50 in assay [1], in assay [2], in assay [3] and in assay [4] was above 10000 nM each time. For the same molecule, in assay [5], the GI50 is above 10000 nM.
With `CCNC1(C)CCN(c2ccc(C(=O)Nc3cn4cc(C)nc(C)c4c3F)c3nn(C)cc23)CC1` [Compound 571, 4-[4-(ethylamino)-4-methyl-1-piperidyl]-N-(8-fluoro-1,3-dimethyl-pyrrolo[1,2-a]-pyrazin-7-yl)-2-methyl-indazole-7-carboxamide], the AC50 in assay [1] was above 10000 nM; in assay [2], 1000 to 10000 nM. The IC50 in assay [1] is above 10000 nM; in assay [2], 1000 to 10000 nM; in assay [3], above 10000 nM; in assay [4] it was 1000 to 10000 nM. Besides, the GI50 in assay [5] was in the range of 1000 to 10000 nM.

The values are drawn from patent US20260285853A1, “COMPOUNDS AND METHODS FOR MODULATING SPLICING” (REMIX THERAPEUTICS INC., priority 2023, published 2026).
